What was measured:
Assay in all cases: relative viability (nuclei count vs DMSO), 5 days (fraction); higher = more cells survive
Dabrafenib + Vorinostat = compound: CC(C)(C)c1nc(-c2cccc(NS(=O)(=O)c3c(F)cccc3F)c2F)c(-c2ccnc(N)n2)s1 [Dabrafenib] + O=C(CCCCCCC(=O)Nc1ccccc1)NO [Vorinostat] (partner 1 µM)
How it was run: (§1)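 Values are medians from duplicate plates. Each reflects relative viability, defined as the nuclei count of treated wells over that of vehicle wells. Lung cancer cell lines in 1536-well plates were pin-tool dosed one day after seeding with one drug alone or with a fixed anchor-drug dose plus five library-drug doses (not always all listed) in √10 steps, then fixed, stained and imaged at 4× after 5 days.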

VX-702 + Luminespib = compound: NC(=O)c1ccc(N(C(N)=O)c2c(F)cccc2F)nc1-c1ccc(F)cc1F [VX-702] + CCNC(=O)c1noc(-c2cc(C(C)C)c(O)cc2O)c1-c1ccc(CN2CCOCC2)cc1 [Luminespib] (partner 0.01 µM)
How it was run: as §1

VX-702 + Tozasertib = compound: NC(=O)c1ccc(N(C(N)=O)c2c(F)cccc2F)nc1-c1ccc(F)cc1F [VX-702] + Cc1cc(Nc2cc(N3CCN(C)CC3)nc(Sc3ccc(NC(=O)C4CC4)cc3)n2)n[nH]1 [Tozasertib] (partner 0.1 µM)
How it was run: as §1

VX-702 + Olaparib = compound: NC(=O)c1ccc(N(C(N)=O)c2c(F)cccc2F)nc1-c1ccc(F)cc1F [VX-702] + O=C(c1cc(Cc2n[nH]c(=O)c3ccccc23)ccc1F)N1CCN(C(=O)C2CC2)CC1 [Olaparib] (partner 8 µM)
How it was run: as §1

Cell Line	relative viability (Dabrafenib + Vorinostat; first compound 0.003 µM)	relative viability (Dabrafenib + Vorinostat; first compound 0.009487 µM)	relative viability (Dabrafenib + Vorinostat; first compound 0.03 µM)	relative viability (Dabrafenib + Vorinostat; first compound 0.09487 µM)	relative viability (Dabrafenib + Vorinostat; first compound 0.3 µM)	relative viability (VX-702 + Luminespib; first compound 0.02 µM)	relative viability (VX-702 + Luminespib; first compound 0.2 µM)	relative viability (VX-702 + Luminespib; first compound 0.6325 µM)	relative viability (VX-702 + Luminespib; first compound 2 µM)	relative viability (VX-702 + Tozasertib; first compound 0.02 µM)	relative viability (VX-702 + Tozasertib; first compound 0.2 µM)	relative viability (VX-702 + Tozasertib; first compound 0.6325 µM)	relative viability (VX-702 + Tozasertib; first compound 2 µM)	relative viability (VX-702 + Olaparib; first compound 0.02 µM)	relative viability (VX-702 + Olaparib; first compound 0.2 µM)	relative viability (VX-702 + Olaparib; first compound 0.6325 µM)	relative viability (VX-702 + Olaparib; first compound 2 µM)
201T	0.978	1.07	0.813	0.947	0.98	1	1.04	0.992	1.07	0.959	0.921	0.937	0.914	0.832	0.882	0.894	0.898
A549														0.444	0.243	0.374	0.114
A-427	0.793	0.962	0.787	0.762	0.866	0.715	0.919	0.823	0.774	0.241	0.169	0.232	0.221	0.779	0.751	0.725	0.943
ABC-1		1.37	1.19	1.25	1.04	0.518	0.48	0.567	0.894	0.152	0.162	0.18	0.207	0.443	0.894	1.03	0.746
BEN		0.499		0.517	0.612	0.374	0.221	0.49	0.331	0.532	0.432	0.481	0.55	0.781	0.89	0.991	1.06
CAL-12T	1.06	0.581	0.804	0.679	0.795	0.565	0.574	0.318	0.363	0.369	0.31	0.273	0.398	0.798	0.69	0.711	0.697
COR-L23	0.387	0.418	0.441	0.412	0.44	0.749	0.719	0.688	0.761	0.202	0.231	0.171	0.244	0.351	0.339	0.379	0.386
COR-L 105	0.779	0.975	0.806	0.888	0.911	0.688	0.715	0.78	0.91	0.225	0.338	0.353	0.355	0.633	0.658	0.768	0.859
Calu-6															0.597	0.65	0.64
ChaGo-K-1	0.518	0.727	0.663	0.694	0.754	0.657	0.46	0.586	0.678	0.214	0.23	0.223	0.225	0.458	0.414	0.433	0.352
EBC-1														0.82	0.702	0.653	0.745
EKVX		0.862	0.716	0.608	0.806	0.899	0.822	0.878	0.942	0.381	0.36	0.379	0.423	0.726	0.869	0.906	0.974
EMC-BAC-2		0.459	0.324	0.281	0.328	1.13	1.13	1.13	1.23	0.349	0.278	0.272	0.304	0.526	0.483	0.482	0.441
EPLC-272H	0.401	0.411	0.409	0.436	0.498	0.344	0.694	0.352	0.272	0.345	0.235	0.418	0.289	0.856	1.07	0.799	1.07
H3255	0.762	0.765	0.755	0.913	0.78	1.09	0.803	0.957	1.11	0.576	0.792	0.655	0.8	0.578	0.53	0.558	0.594
HARA	0.553	0.644		0.481	0.567	0.743	0.75	0.58	0.947	0.113	0.0909	0.118	0.117	0.87		0.779	0.964
HCC-15	0.862	0.844	0.825	0.768	0.896	0.26	0.295	0.288	0.349	0.402	0.322	0.408	0.53	0.752	0.712	0.692	0.719
HCC-44	1.07	1.06	1.28	1.05	1.08	0.84	0.983	0.909	1.48	0.765	0.893	1.05	1.3	1.01	0.982	0.989	0.963
HCC-78		0.507	0.426	0.511	0.616					0.42	0.456	0.325	0.465	0.743	0.671	0.83	0.867
HCC-366	0.365	0.286	0.29	0.296	0.247					0.156	0.095	0.0851	0.0835	0.409	0.361	0.353	0.269
HCC-827	0.423	1.01	0.785		0.79	0.449	0.638	0.504	0.273	0.427	0.396	0.387	0.393	0.648	0.603	0.59	0.562
HOP-62	0.199	0.806	0.555	0.341	0.5	0.926	0.899	0.916	0.962	0.474	0.37	0.41	0.373	0.478	0.611	0.553	0.65

From the supplement of paper PMC10307832
